Assay results taken from patent US8334295B2, “Pyrimidine derivatives as HIV reverse transcriptase inhibitors” (Korea Research Institute of Chemical Technology, priority 2007, dated 2012).

Tests used:
HIV-IIIb = assay: Antiviral assay in MT-2 cells; format: cell-based; details: Human immunodeficiency virus 1, 120 h; HIV-IIIb infected cells, 5 days, CellTiter-Glo; MT-2 or MT-4 cells not stated
Procedure: For the antiviral assay utilizing MT-2 cells, 50 μL of 2× test concentration of 5-fold serially diluted compound in culture medium with 10% FBS was added to each well of a 96-well plate (9 concentrations) in triplicate. MT-2 cells were infected with HIV-IIIb at a multiplicity of infection (m.o.i) of 0.01 for 3 hours. Fifty microliters of infected cell suspension in culture medium with 10% FBS (˜1.5×10^4 cells) was then added to each well containing […] of diluted compound. The plates were then incubated at 37° C. for 5 days. For the antiviral assay utilizing MT-4 cells, 20 μL of 2× test concentration of 5-fold serially diluted compound in culture medium with 10% FBS was added to each well of a 384-well plate (7 concentrations) in triplicate. MT-4 cells were next mixed with HIV-IIIb at an m.o.i. of 0.1 and 20 μl of virus/cell mixture (2000 cells) was immediately added to each well containing […] of diluted compound. The plates were then incubated at 37° C. for 5 days. After 5 days of incubation, 100 μL of CellTiter-Glo™ Reagent (catalog #G7571, Promega Biosciences, Inc., Madison, Wis.) was added to each well containing MT-2 cells and 40 μL to each well containing MT-4 cells. Cell lysis was carried out by incubation at room temperature for 10 min and chemiluminescence was read.

Structure (SMILES) | EC50 (HIV-IIIb) | melting point
CCn1c(C(=O)c2cc(C)cc(C#N)c2)c(C(C)C)c(=O)[nH]c1=O [Compound 3, 3-(3-ethyl-5-isopropyl-2,6-dioxo-1,2,3,6-tetrahydro-pyrimidine-4-carbonyl)-5-methyl-benzonitrile] | < 10 nM | 
Cc1cc(C#N)cc(C(=O)c2c(C(C)C)c(=O)[nH]c(=O)n2CC2CC2)c1 [Compound 5] | < 10 nM | 
C/C=C(\Cl)Cn1c(C(=O)c2cc(C)cc(C#N)c2)c(C(C)C)c(=O)[nH]c1=O [Compound 6] | < 10 nM | 
CCOCn1c(C(=O)c2cc(C)cc(C#N)c2)c(C(C)C)c(=O)[nH]c1=O [Compound 9] | < 10 nM | 
Cc1cc(C#N)cc(C(=O)c2c(C(C)C)c(=O)[nH]c(=O)n2CCCO)c1 [Compound 25] | < 10 nM | 166 to 167 °C
CCOCn1c(C(=O)c2cc(Cl)cc(C#N)c2)c(C(C)C)c(=O)[nH]c1=O [Compound 38] | < 10 nM | 162 to 164 °C
CCCn1c(C(=O)c2cc(C)cc(C#N)c2)c(C(C)C)c(=O)[nH]c1=O [Compound 46] | < 10 nM | 202 to 203 °C
CCCCn1c(C(=O)c2cc(C)cc(C#N)c2)c(C(C)C)c(=O)[nH]c1=O [Compound 47, 3-(3-Butyl-5-isopropyl-2,6-dioxo-1,2,3,6-tetrahydro-pyrimidine-4-carbonyl)-5-methyl-benzonitrile] | < 10 nM | 
CCOCn1c(C(=O)c2cc(C)cc(C)c2)c(C(C)C)c(=O)[nH]c1=O [Compound 54] | < 10 nM | 
CCOCn1c(C(=O)c2cc(C)cc(/C=C/C#N)c2)c(C(C)C)c(=O)[nH]c1=O [Compound 56] | < 10 nM | 
CCOCn1c(C(F)c2cc(C)cc(C)c2)c(C(C)C)c(=O)[nH]c1=O (centres unmarked) [Compound 57] | < 10 nM | 
C/C=C/Cn1c(C(=O)c2cc(C)cc(C)c2)c(C(C)C)c(=O)[nH]c1=O [Compound 60] | < 10 nM | 
CCCCn1c(C(=O)c2cc(C)cc(C#N)c2)c(CC)c(=O)[nH]c1=O [Compound 70] | < 10 nM | 190 to 191 °C
Cc1cc(C=CC#N)cc(C(=O)c2c(C(C)C)c(=O)[nH]c(=O)n2CC2CC2)c1 [Compound 72, 3-[3-(3-Cyclopropylmethyl-5-isopropyl-2,6-dioxo-1,2,3,6-tetrahydro-pyrimidine-4-carbonyl)-5-methyl-phenyl]-acrylonitrile] | < 10 nM | 225 to 226 °C
CCn1c(C(=O)c2cc(C)cc(C=CC#N)c2)c(C(C)C)c(=O)[nH]c1=O [Compound 73, 3-[3-(3-Ethyl-5-isopropyl-2,6-dioxo-1,2,3,6-tetrahydro-pyrimidine-4-carbonyl)-5-methyl-phenyl]-acrylonitrile] | < 10 nM | 174 to 176 °C
CCCCn1c(C(=O)c2cc(C)cc(C=CC#N)c2)c(C(C)C)c(=O)[nH]c1=O [Compound 74, 3-[3-(3-Butyl-5-isopropyl-2,6-dioxo-1,2,3,6-tetrahydro-pyrimidine-4-carbonyl)-5-methyl-phenyl]-acrylonitrile] | < 10 nM | 164 to 165 °C
CCn1c(C(=O)c2cc(C)cc(CCC#N)c2)c(C(C)C)c(=O)[nH]c1=O [Compound 75, 3-[3-(3-Ethyl-5-isopropyl-2,6-dioxo-1,2,3,6-tetrahydro-pyrimidine-4-carbonyl)-5-methyl-phenyl]-propionitrile] |  | 173 to 174 °C
CCCCn1c(C(=O)c2cc(C)cc(CCC#N)c2)c(C(C)C)c(=O)[nH]c1=O [Compound 76, 3-[3-(3-Butyl-5-isopropyl-2,6-dioxo-1,2,3,6-tetrahydro-pyrimidine-4-carbonyl)-5-methyl-phenyl]-propionitrile] | < 10 nM | 172 to 173 °C
Cc1cc(C#N)cc(C(=O)c2c(C(C)C)c(=O)[nH]c(=O)n2C(C)C)c1 [Compound 77, 3-(3,5-Diisopropyl-2,6-dioxo-1,2,3,6-tetrahydro-pyrimidine-4-carbonyl)-5-methyl-benzonitrile] |  | 278 to 280 °C
Cc1cc(C#N)cc(C(=O)c2c(C(C)C)c(=O)[nH]c(=O)n2CC(C)C)c1 [Compound 78, 3-(3-Isobutyl-5-isopropyl-2,6-dioxo-1,2,3,6-tetrahydro-pyrimidine-4-carbonyl)-5-methyl-benzonitrile] |  | 200 to 201 °C
C=CCCn1c(C(=O)c2cc(C)cc(C#N)c2)c(C(C)C)c(=O)[nH]c1=O [Compound 79, 3-(3-But-3-enyl-5-isopropyl-2,6-dioxo-1,2,3,6-tetrahydro-pyrimidine-4-carbonyl)-5-methyl-benzonitrile] |  | 133 to 134 °C
CC=CCn1c(C(=O)c2cc(C)cc(C#N)c2)c(C(C)C)c(=O)[nH]c1=O [Compound 80, 3-(3-But-2-enyl-5-isopropyl-2,6-dioxo-1,2,3,6-tetrahydro-pyrimidine-4-carbonyl)-5-methyl-benzonitrile] | < 10 nM | 177 to 178 °C
Cc1cc(C#N)cc(C(=O)c2c(C(C)C)c(=O)[nH]c(=O)n2CC2(CC(N)=O)CC2)c1 [Compound 85, 2-{1-[6-(3-Cyano-5-methyl-benzoyl)-5-isopropyl-2,4-dioxo-3,4-dihydro-2H-pyrimidin-1-ylmethyl]-cyclopropyl}-acetamide] |  | 283 to 285 °C
CCn1c(C(C#N)c2cc(C)cc(C#N)c2)c(C(C)C)c(=O)[nH]c1=O (centres unmarked) [Compound 85, 3-[Cyano-(3-ethyl-5-isopropyl-2,6-dioxo-1,2,3,6-tetrahydro-pyrimidin-4-yl)-methyl]-5-methyl-benzonitrile] |  | 260 to 261 °C
Cc1cc(C#N)cc(C(=O)c2c(C(C)C)c(=O)[nH]c(=O)n2CCOC(N)=O)c1 [Compound 86, Carbamic acid 2-[6-(3-cyano-5-methyl-benzoyl)-5-isopropyl-2,4-dioxo-3,4-dihydro-2H-pyrimidin-1-yl]-ethyl ester] | < 10 nM | 
CC=CCn1c(Oc2cc(C)cc(C)c2)c(C(C)C)c(=O)[nH]c1=O [Compound 115, 1-But-2-enyl-6-(3,5-dimethyl-phenoxy)-5-isopropyl-1H-pyrimidine-2,4-dione] | < 10 nM | 
